Read-outs that look alike come from different tables or passages of the source.
What was measured:
Format in all cases: cell-based
Conditions in all cases: 48 hours
IFN-γ = IFN-γ production by PHA-stimulated human PBMC (OptEIA human IFN-g ELISA)
How it was run: (§1)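 PBMC from healthy donors, 1×10^5/well, 2 μg/ml PHA + compound, 48 h. Supernatant cytokine by Luminex bead assay or ELISA as listed. Screen at 10/1/0.1/0.01 μM; IC50 via semilog titration.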

[1] = system: PBMC from healthy human donors; assay: T cell proliferation assay (PHA-stimulated human PBMC, BrdU ELISA)
How it was run: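 Healthy-donor PBMC isolated on Ficoll, seeded at 1×10⁵ cells/well in RPMI with 10% dialysed FCS, stimulated with 2 μg/ml PHA in presence of test compound. Proliferation read after 48 hours by BrdU-incorporation ELISA.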

IL-17FF = IL-17FF production by PHA-stimulated human PBMC (human IL-17F ELI-Pair)
How it was run: as §1

IL-17AA = IL-17AA production by PHA-stimulated human PBMC (human homodimer IL-17A ELISA)
Experimental: Analysis of Proliferation of and Cytokine Production by Human PBMC Stimulated with PHA
Peripheral blood mononuclear cells (PBMC) from healthy human donors were purified using Accuspin™ System-Histopaque-1077 (Sigma) according to the protocol recommended by the manufacturer. Purified PBMC were then washed twice with phosphate-buffered saline (PBS) and resuspended in RPMI1640 culture medium supplemented with 10% dialyzed heat inactivated fetal calf serum, 1.5 mM L-glutamine, 100 U penicillin/ml, and […] (all from PAN Biotech, Aidenbach, Germany). For stimulation, PBMC were seeded at 1×10^5 cells/well, activated with 2 μg/ml phytohaemagglutinin (PHA, Sigma) and incubated with the test compounds for 48 hours. IL-17A, IL-17F and INF-γ were then determined in the culture supernatant using a Luminex BioPlex system, following the manufacturer's instructions (BioRad, Munich, Germany). For screening, compounds were used at 10, 1, 0.1 and 0.01 μM. To determine the IC50, compounds were titrated semilogarithmically.
Cytokines were determined in the aforementioned culture supernatant using the following methods: IL-17AA/AF was measured using the Luminex BioPlex system (BioRad, Munich, Germany); IL-17AA using the human homodimer IL-17A ELISA Ready Set Go Kit from eBioscience (Frankfurt, Germany); IL-17FF using the human IL-17F ELI-Pair from Hölzel DiagnosticaGmBH (Köln, Germany); and IFN-γ using the OptEIA human IFN-g ELISA from BD Bioscience (Heidelberg, Germany), all following the manufacturer's instructions.

[2] = human PBMC, 2 μg/ml PHA, read-out: C: IC50 (IFNγ)
[3] = human PBMC, 2 μg/ml PHA, read-out: D: IC50 (Tcell proliferation)
[4] = human PBMC, 2 μg/ml PHA, read-out: B: IC50 (IL-17FF)
[5] = human PBMC, 2 μg/ml PHA, read-out: A: IC50 (IL-17AA)
[6] = PHA-stimulated human PBMC, column C, read-out: IC50 (IFNγ)
[7] = PHA-stimulated human PBMC, column D, read-out: IC50 (Tcell proliferation)
[8] = PHA-stimulated human PBMC, column B, read-out: IC50 (IL-17FF)
[9] = PHA-stimulated human PBMC, column A, values without *, read-out: IC50 (IL-17AA)

Row | Structure (SMILES) | IC50 (IFN-γ; [2]) [nM] | IC50 [1, 3] [nM] | IC50 (IL-17FF; [4]) [nM] | IC50 (IL-17AA; [5]) [nM] | IC50 (IFN-γ; [6]) [nM] | IC50 [1, 7] [nM] | IC50 (IL-17FF; [8]) [nM] | IC50 (IL-17AA; [9]) [nM]
1 | Fc1cccc(-n2ncc(-c3onc(-c4c(F)cccc4Cl)c3-c3ccoc3)c2C(F)(F)F)c1 [Example 13, 3-(2-chloro-6-fluorophenyl)-5-(1-(3-fluorophenyl)-5-(trifluoromethyl)-1H-pyrazol-4-yl)-4-(furan-3-yl)isoxazole] | 1000 to 10000 | 1000 to 10000 | 100 to 1000 | 1000 to 10000 | – | – | – | –
2 | Fc1ccccc1-n1ncc(-c2onc(-c3c(F)cccc3Cl)c2-c2ccoc2)c1C(F)(F)F [Example B-9, 3-(2-chloro-6-fluorophenyl)-5-(1-(2-fluorophenyl)-5-(trifluoromethyl)-1H-pyrazol-4-yl)-4-(furan-3-yl)isoxazole] | 100 to 1000 | 100 to 1000 | 10 to 100 | 100 to 1000 | – | – | – | –
3 | COC(=O)c1csc(-c2c(-c3c(F)cccc3Cl)noc2-c2cnn(-c3cccc(F)c3)c2C(F)(F)F)n1 [Example B-2, methyl 2-(3-(2-chloro-6-fluorophenyl)-5-(1-(3-fluorophenyl)-5-(trifluoromethyl)-1H-pyrazol-4-yl)isoxazol-4-yl)thiazole-4-carboxylate] | 10 to 100 | 100 to 1000 | 10 to 100 | 100 to 1000 | – | – | – | –
4 | Cc1nnc(-c2c(-c3c(F)cccc3Cl)noc2-c2cnn(-c3ccccc3F)c2C(F)(F)F)o1 [Example 11, 2-(3-(2-chloro-6-fluorophenyl)-5-(1-(2-fluorophenyl)-5-(trifluoromethyl)-1H-pyrazol-4-yl)isoxazol-4-yl)-5-methyl-1,3,4-oxadiazole] | 10 to 100 | 100 to 1000 | 100 to 1000 | 1000 to 10000 | – | – | – | –
5 | CCOC(=O)c1c(-c2c(F)cccc2Cl)noc1-c1cnn(-c2cccc(NC(C)=O)c2)c1C(F)(F)F [IB-70, ethyl 5-(1-(3-acetamidophenyl)-5-(trifluoromethyl)-1H-pyrazol-4-yl)-3-(2-chloro-6-fluorophenyl)isoxazole-4-carboxylate] | – | – | – | – | 10 to 100 | 10 to 100 | 10 to 100 | 10 to 100
6 | COC(=O)c1c(-c2c(F)cccc2Cl)noc1-c1cnn(-c2cccc(C#N)c2)c1C(F)(F)F [Example I-12, methyl 3-(2-chloro-6-fluorophenyl)-5-(1-(3-cyanophenyl)-5-(trifluoromethyl)-1H-pyrazol-4-yl)isoxazole-4-carboxylate] | – | – | – | – | 10 to 100 | 10 to 100 | 10 to 100 | 100 to 1000
7 | Cc1nnc(-c2c(-c3c(F)cccc3Cl)noc2-c2cnn(-c3ccccc3Cl)c2C(F)(F)F)o1 [Example B-18, 2-(3-(2-chloro-6-fluorophenyl)-5-(1-(2-chlorophenyl)-5-(trifluoromethyl)-1H-pyrazol-4-yl)isoxazol-4-yl)-5-methyl-1,3,4-oxadiazole] | 1000 to 10000 | 1000 to 10000 | 1000 to 10000 | – | – | – | – | –
8 | CCOC(=O)c1c(-c2c(F)cccc2Cl)noc1-c1cnn(-c2ccccc2[N+](=O)[O-])c1C(F)(F)F [IB-95, 3-(2-chloro-6-fluorophenyl)-5-(1-(2-nitrophenyl)-5-(trifluoromethyl)-1H-pyrazol-4-yl)isoxazole-4-carboxylate] | – | – | – | – | 10 to 100 | 100 to 1000 | 10 to 100 | –
9 | NNC(=O)c1c(-c2c(F)cccc2Cl)noc1-c1cnn(-c2cccc(F)c2)c1C(F)(F)F [Example I-133, 3-(2-chloro-6-fluorophenyl)-5-(1-(3-fluorophenyl)-5-(trifluoromethyl)-1H-pyrazol-4-yl)isoxazole-4-carbohydrazide] | – | – | – | – | 1000 to 10000 | 1000 to 10000 | 1000 to 10000 | –
10 | CON(C)C(=O)c1c(-c2c(F)cccc2Cl)noc1-c1cnn(-c2cccc(F)c2)c1C(F)(F)F [Example I-135, 3-(2-chloro-6-fluorophenyl)-5-(1-(3-fluorophenyl)-5-(trifluoromethyl)-1H-pyrazol-4-yl)-N-methoxy-N-methylisoxazole-4-carboxamide] | – | – | – | – | 100 to 1000 | 100 to 1000 | 100 to 1000 | –
11 | CCOC(=O)c1c(-c2ccncc2F)noc1-c1cnn(-c2ccccc2F)c1C(F)(F)F [IB-15, ethyl 5-(1-(2-fluorophenyl)-5-(trifluoromethyl)-1H-pyrazol-4-yl)-3-(3-fluoropyridin-4-yl)isoxazole-4-carboxylate] | – | – | – | – | 100 to 1000 | 100 to 1000 | 1000 to 10000 | –
12 | CCOC(=O)c1c(-c2ccncc2F)noc1-c1cnn(-c2ccccn2)c1C(F)(F)F [IB-8] | – | – | – | – | 1000 to 10000 | 1000 to 10000 | 1000 to 10000 | –
13 | COCCn1ncc(-c2onc(-c3c(F)cccc3Cl)c2C(=O)OC)c1C(F)(F)F [Example I-102, methyl 3-(2-chloro-6-fluorophenyl)-5-(1-(2-methoxyethyl)-5-(trifluoromethyl)-1H-pyrazol-4-yl)isoxazole-4-carboxylate] | – | – | – | – | 1000 to 10000 | 100 to 1000 | 1000 to 10000 | –
14 | Cc1nnc(-c2c(-c3c(F)cccc3Cl)noc2-c2cnn(-c3ccccn3)c2C(F)(F)F)s1 [Example B-27, 3-(2-chloro-6-fluorophenyl)-4-(5-methyl-1,3,4-thiadiazol-2-yl)-5-(1-(pyridin-2-yl)-5-(trifluoromethyl)-1H-pyrazol-4-yl)isoxazole] | 10 to 100 | 10 to 100 | 10 to 100 | – | – | – | – | –
15 | Cc1nnc(-c2c(-c3c(F)cccc3Cl)noc2-c2cnn(-c3cccnc3)c2C(F)(F)F)o1 [Example B-10, 2-(3-(2-chloro-6-fluorophenyl)-5-(1-(pyridin-3-yl)-5-(trifluoromethyl)-1H-pyrazol-4-yl)isoxazol-4-yl)-5-methyl-1,3,4-oxadiazole] | 10 to 100 | 100 to 1000 | 100 to 1000 | – | – | – | – | –
16 | Fc1cccc(Cl)c1-c1noc(-c2cnn(-c3cccc(Cl)c3)c2C(F)(F)F)c1-c1nncs1 [Example B-8, 3-(2-chloro-6-fluorophenyl)-5-(1-(3-chlorophenyl)-5-(trifluoromethyl)-1H-pyrazol-4-yl)-4-(1,3,4-thiadiazol-2-yl)isoxazole] | < 10 | < 10 | < 10 | – | – | – | – | –
17 | Oc1csc(-c2c(-c3c(F)cccc3Cl)noc2-c2cnn(-c3cccc(F)c3)c2C(F)(F)F)n1 [Example 9, 2-(3-(2-chloro-6-fluorophenyl)-5-(1-(3-fluorophenyl)-5-(trifluoromethyl)-1H-pyrazol-4-yl)isoxazol-4-yl)thiazol-4-ol] | 100 to 1000 | 100 to 1000 | 100 to 1000 | – | – | – | – | –
18 | CCOC(=O)c1c(-c2c(F)cccc2Cl)noc1-c1cnn(Cc2ccccc2F)c1C(F)(F)F [IB-80, ethyl 3-(2-chloro-6-fluorophenyl)-5-(1-(2-fluorobenzyl)-5-(trifluoromethyl)-1H-pyrazol-4-yl)isoxazole-4-carboxylate] | – | – | – | – | 1000 to 10000 | 1000 to 10000 | 1000 to 10000 | –
19 | O=C(c1c(-c2c(F)cccc2Cl)noc1-c1cnn(-c2ccccc2F)c1C(F)(F)F)N1CCCO1 [IB-52, (3-(2-chloro-6-fluorophenyl)-5-(1-(2-fluorophenyl)-5-(trifluoromethyl)-1H-pyrazol-4-yl)isoxazol-4-yl)(isoxazolidin-2-yl)methanone] | – | – | – | – | 1000 to 10000 | 1000 to 10000 | 1000 to 10000 | –
20 | CCOC(=O)c1c(-c2c(Cl)cncc2Cl)noc1-c1cnn(-c2ccncc2)c1C(F)(F)F [IB-10, ethyl 3-(3,5-dichloropyridin-4-yl)-5-(1-(pyridin-4-yl)-5-(trifluoromethyl)-1H-pyrazol-4-yl)isoxazole-4-carboxylate] | – | – | – | – | 100 to 1000 | 100 to 1000 | 100 to 1000 | –
21 | COC(=O)c1c(-c2c(F)cccc2Cl)noc1-c1cnn(-c2ccc(C(C)(C)C)cc2)c1C(F)(F)F [Example I-81, methyl 5-(1-(4-tert-butylphenyl)-5-(trifluoromethyl)-1H-pyrazol-4-yl)-3-(2-chloro-6-fluorophenyl)isoxazole-4-carboxylate] | – | – | – | – | 100 to 1000 | 1000 to 10000 | 1000 to 10000 | –
22 | CNC(=O)c1c(-c2c(F)cccc2Cl)noc1-c1cnn(-c2ccccc2)c1C(F)(F)F [Example I-59, 3-(2-chloro-6-fluorophenyl)-N-methyl-5-(1-phenyl-5-(trifluoromethyl)-1H-pyrazol-4-yl)isoxazole-4-carboxamide] | – | – | – | – | 100 to 1000 | 100 to 1000 | 100 to 1000 | –
